Assays:
Format in all cases: ADME, organism-based
[1] = system: Plasma; assay: Unbound concentration in mouse plasma at […], sc after 30 mins; conditions: in vivo, 0.5 h
[2] = system: Brain; assay: Unbound concentration in mouse brain at […], sc after 30 mins; conditions: in vivo, 0.5 h
[3] = Drug uptake in rat brain at 3 mg/kg, sc after 30 mins; conditions: read-out: Drug uptake
[4] = Drug uptake in rat cerebrospinal fluid at 3 mg/kg, sc after 30 mins; conditions: read-out: Drug uptake
[5] = system: Plasma; assay: Unbound concentration in rat plasma at 3 mg/kg, sc after 30 mins; conditions: in vivo, 0.5 h
[6] = Ratio of unbound concentration in mouse brain to plasma at […], sc after 30 mins; conditions: brain and plasma, read-out: K(p,uu,brain)
[7] = system: Brain; assay: Unbound concentration in rat brain at 3 mg/kg, sc after 30 mins; conditions: in vivo, 0.5 h
[8] = Ratio of unbound concentration in rat brain to plasma at 3 mg/kg, sc after 30 mins; conditions: brain and plasma, read-out: K(p,uu,brain)
[9] = Drug uptake in rat plasma at 3 mg/kg, sc after 30 mins
[10] = Drug uptake in mouse plasma at […], sc after 30 mins
[11] = Drug uptake in mouse brain at […], sc after 30 mins; conditions: read-out: Drug uptake

Cp(f) [1]: 160 nM
Drug uptake(free) [2]: 43 nM
concentration at 0.5 h [3]: 950 nM
concentration at 0.5 h [4]: 79.9 nM
Cp(f) [5]: 248 nM
Kp uu at 0.5 h [6]: 0.27
Drug uptake(free) [7]: 90.2 nM
Kp uu at 0.5 h [8]: 0.37
concentration at 0.5 h [9]: 776 nM
concentration at 0.5 h [10]: 798 nM
concentration at 0.5 h [11]: 452 nM
SMILES: Cn1ncc(-c2nn(C)c3ncnc(N4CCC4)c23)c1-c1ccc(C(F)(F)F)cc1

From ChEMBL document CHEMBL4014349, “Application of Structure-Based Design and Parallel Chemistry to Identify a Potent, Selective, and Brain Penetrant Phosphodiesterase 2A Inhibitor” (J Med Chem, 2017)
